In patent US4241184A, “Secondary alcohol dehydrogenase enzyme and use thereof” (priority 1979, dated 1980):
Read-outs that look alike come from different tables or passages of the source.

Key:
[1] = test system: methanol-grown Methylococcus capsulatus CRL M1 (NRRL B-11,219); assay: Effect of metal-chelating agents and other inhibitors on production of 2-butanone by cell suspensions; assay type: cell-based
[2] = test system: cell-free particulate fractions derived from the methylotrophic microorganisms; assay: Conversion of C3-C6 n-alkanes to sec. alcohols by cell-free particulate fractions: inhibitors and electron donors; assay type: biochemical
Description: The conditions for preparing the cell suspensions or the cell-free particulate fractions from methane-grown methylotroph microorganisms is the same as described above. […] Tables XXV and XXVI show the conversion of C3 -C6 n-alkanes to the corresponding secondary alcohols using cell suspensions and cell-free particulate fractions, respectively, of methane-grown methylotroph microorganisms.

[3] = test system: Methylosinus trichosporium OB3b (NRRL B-11,196); assay: Effect of inhibitors on epoxidation of propylene and hydroxylation of methane, cell-containing enzyme preparation; assay type: cell-based
[4] = test system: Methylococcus capsulatus (CRL Ml, NRRL B-11,219); assay: as above; assay type: cell-based; conditions: Methylococcus capsulatus
[5] = test system: cell suspensions of C1 -utilizers; assay: Optimal conditions and inhibition of 2-butanone production from 2-butanol by cell suspensions; assay type: cell-based
Description: The following summarizes tests conducted on the optimal conditions for the production of methyl ketones from C3 -C6 sec. alcohols.

[6] = test system: P(40) particulate fraction of Methylosinus sp. (CRL-15, NRRL B-11,202); assay: Effect of inhibitors on propylene epoxidation and methane hydroxylation by P(40) fraction; assay type: biochemical; conditions: inhibitor 10^-3 M
Procedure: The oxidation of methane and propylene by particulate [(P)40 and(P)80] fractions and soluble [S(80)] fraction was measured at 30° C. by estimating the production of methanol and propylene oxide, respectively. The reaction mixtures contained in 1.0 ml: 150 mM potassium phosphate buffer, pH 7.0 containing 5 mM MgCl2, 0.6 ml; 10 μmoles NADH, and cellular fraction.
Reaction mixtures were contained in 10 ml vials at 4° C. Vials were sealed with rubber caps. The gaseous phase in the vials was removed using vacuum and then was replaced with a gas mixture of methane or propylene and oxygen at a 1:1, v/v ratio. Oxidation of other gaseous n-alkanes and n-alkenes was examined as described above. For liquid substrates, 10 μl of substrate was used directly. Vials were then incubated at 30° C. on a rotary shaker at 200 RPM.
It has been reported that the oxidation of methane by cell suspensions of methane-utilizing bacteria was inhibited by various metal-binding or metal-chelating agents (Patel et al., J. Bacteriol. 126: 1017-1019 (1976)). […] (CRL-15, NRRL B-11,202) was examined.

[7] = test system: Methylobacterium organophilum (CRL 26, NRRL B-11,222); assay: Effect of inhibitors on epoxidation of propylene and hydroxylation of methane, cell-containing enzyme preparation; assay type: cell-based
[8] = test system: Methylobacter vinelandii (CRL M5Y NRRL B-11,218); assay: Microbiological oxidation of cyclic hydrocarbons by methane-grown washed cells; assay type: cell-based
Description: Methylobacter vinelandii (CRL M5Y NRRL B-11,218) was aerobically grown in a methane-containing nutrient medium in the manner described in Example 1 and the methane-grown washed cells were contacted under aerobic conditions with cyclohexane, benzene and toluene.

[9] = test system: secondary alcohol dehydrogenase (SADH); assay: Purified secondary alcohol dehydrogenase activity (formation of reduced NAD); assay type: biochemical, Pseudomonas sp. ATCC 21439
Procedure: Secondary alcohol dehydrogenase (SADH) from an obligate methanol utilizer, Pseudomonas sp. ATCC 21439 was purified as follows. […] 0.05 M sodium phosphate buffer, pH 7.0 with 0.5 mM dithiothretol (buffer A) and were disrupted sonically (5×1 min.). The crude extract was separated by centrifugation. The crude extract was heat-treated at 50° C. in a water bath for 10 minutes. The resulting precipitate was removed by centrifugation. To the supernatant solution, 25 ml of protamine sulfate solution (2% solution in 0.1 M Tris base) was added dropwise with continuous stirring. After standing for 30 minutes, the extract was centrifuged. The supernatant solution was fractionated with solid ammonium sulfate. The material precipitating between 30 and 60% saturation was collected and was dialized overnight against buffer A. The The dialized material was applied to a DEAE-cellulose column (3 cm by 35 cm) that had been equilibrated with buffer A. The secondary alcohol dehydrogenase activity was eluted in the void volume. This DEAE-cellulose eluate was concentrated by ammonium sulfate fractionation. Material precipitating between 30 and 50% ammonium sulfate saturation was collected by centrifugation and dialyzed overnight against A. This fraction was further washed and filtered through an Amicon unit with XM 50 membrane. The concentrated fraction (6 ml) inside the Amicon unit was applied to an Affi-Gel Blue column (0.8 cm×18 cm) which had been equilibrated with buffer A for affinity chromatography. The column was washed overnight with buffer A (0.18 ml./min.) and then was eluted with buffer A containing 5 mM NAD. Each 1 ml. fraction was collected.
The purified secondary alcohol dehydrogenase enzyme (SADH) may be used directly for converting C3 -C6 secondary alcohols to the corresponding methyl ketones by the procedures described above; however, a source of NAD^+ must be added to the reaction medium. One can determine the NAD-linked secondary alcohol dehydrogenase activity with a fluorescence spectrophotometer (Perkin Elmer, Model MPF 44A) by following the formation of reduced NAD (Ex 340 nm, Em 460 nm). The assay system (3 ml.) will typically contain: sodium phosphate buffer pH 7.0, 150 μmol; NAD 1.0 μmol; a given amount of enzyme preparation; and 20 μmol secondary alcohol. The reaction is started by the addition of secondary alcohol. One unit of SADH enzyme activity represents the reduction of one nmole NAD per minute.
The effect of metal-chelating agents and thioreagents on the activity of the purified SADH enzyme were studied. […] The possibility of ethanol or n-propanol as an inhibitor was studied.

[10] = test system: secondary alcohol dehydrogenase; assay: Purified yeast secondary alcohol dehydrogenase: substrates, electron acceptors, inhibitors, stoichiometry; assay type: biochemical, Pichia sp. NRRL Y-11,328
Procedure: Large scale cultures of Pichia sp. NRRL Y-11,328 were grown with aeration at 30° C. in a 14-liter New Brunswick f fermentor in a mineral salt medium containing methanol (0.4%, v/v) as the sole carbon source. The cells (200 g., wet weight) were suspended in […] sodium phosphate buffer, pH 7.0, containing 1 mM dithiothreitol (buffer A), and crude extracts were prepared as described previously. To the crude extracts, 18 ml. of protamine sulfate solution [2% solution in 0.1 M tris (hydroxymethyl) aminomethane (tris) base] was added dropwise with continuous stirring. After standing for 30 min., the extracts were centrifuged at 20,000×g. for 60 min. The supernatant solution was fractionated with solid ammonium sulfate. Extracts were brought to 50% of saturation with respect to ammonium sulfate by addition of 313 g. of the salt per liter of extract. Precipitated proteins was removed by centrifugation, and 137 g. of ammonium sulfate was added per liter of the supernatant liquid to bring it to 70% of saturation. Material precipitating between 50 and 70% of saturation was collected by centrifugation and dissolved in buffer A. This preparation was dialyzed overnight against buffer A, and the dialyzed material was applied to a DEAE-cellulose column (5×40 cm) that had been equilibrated with buffer A. The sample was washed with 200 ml. of buffer A and eluted with 2 liters of buffer A that contained NaCl in a linear gradient running from a concentration of 0 to 0.5 M. Fractions of 15 ml. were collected. Fractions containing secondary alcohol dehydrogenase activity were pooled and were termed DEAE-cellulose eluate. The DEAE-cellulose eluate was concentrated by ammonium sulfate fractionation.
Secondary alcohol dehydrogenase activity was measured spectrophotometrically at 340 nm with a NAD^+ as an electron acceptor. The reaction mixture, in a total 3.0 ml., contained 50 mM phosphate buffer, pH 8.0, 5μ moles NAD^+, crude extracts, and subtrate. The reactions were started by addition of 100 μl of 0.1 M substrate and the rate of NAD^+ reduction was measured. Protein concentration was determined by the method of Lowry et al.
The substrate specificity of the purified secondary alcohol dehydrogenase was examined spectrophotometrically.

[11] = test system: cell-free extracts of strain ATCC-21439
Procedure: The reaction mixtures 3 ml (1.0 mg protein) were incubated at 30°
C. for 10 min. (exp. 1) and for 20 min. (exp. 2) in the presence of 1.0
^a Determined gas chromatographically.
^b Determined fluorescence spectrophotometrically. Endogenous
consumption of NAD was corrected.

[12] = NRRLB11, read-out: Inhibition (%) of production of 2-butanone, 1 mM
[13] = NRRLB11, 1 h, read-out: % Inhibition, Epoxidation
[14] = NRRLB11, 1 h, read-out: % Inhibition, Hydroxylation
[15] = NRRLB11, inhibitor 1 mM, 1 hour at 30° C., read-out: % Inhibition, Epoxidation
[16] = NRRLB11, inhibitor 1 mM, 1 hour at 30° C., read-out: % Inhibition, Hydroxylation
[17] = purified SADH, each inhibitor 1 mM, measured spectrofluorometrically

NC(N)=S [Thiourea]
inhibition at 1000 µM [1, 12]: 0%
inhibition of the conversion of the n-alkanes to the sec. alcohols [2]: inhibited
inhibition at 1000 µM [3, 13]: 100%
inhibition at 1000 µM [3, 14]: 100%
inhibition at 1000 µM [4, 13]: 100%
inhibition at 1000 µM [4, 14]: 100%
inhibition of production of 2-butanone from 2-butanol by cell suspensions of the strains tested [5]: not inhibited
% Inhibition, Methane-Hydroxylating Activity [6]: 98%
% Inhibition, Propylene-Epoxidizing Activity [6]: 98%
inhibition at 1000 µM [7, 13]: 100%
inhibition at 1000 µM [7, 14]: 100%

C1CCCCC1 [Cyclohexane]
oxidative conversion rate of cyclic hydrocarbon (cyclohexane to cyclohexanol) [8]: 1.5 μmoles/2 hr./mg. protein

Cc1ccccc1 [toluene]
oxidative conversion rate of cyclic hydrocarbon (cyclohexane to cyclohexanol) [8]: no oxidative conversion was detected

O=C(O)CN(CCN(CC(=O)O)CC(=O)O)CC(=O)O [EDTA]
inhibition at 1000 µM ([1]; NRRLB11, read-out: Inhibition (%) of production of 2-butanone): 70%
% inhibition of SADH activity [9]: 63%

c1cnc2c(c1)ccc1cccnc12 [1,10-Phenanthroline]
inhibition at 1000 µM [1, 12]: 95%
inhibition of the conversion of the n-alkanes to the sec. alcohols [2]: inhibited
inhibition at 1000 µM [3, 15]: 90%
inhibition at 1000 µM [3, 16]: 92%
inhibition at 1000 µM [4, 15]: 95%
inhibition at 1000 µM [4, 16]: 95%
% inhibition of SADH activity [9, 17]: 95%
inhibition of production of 2-butanone from 2-butanol by cell suspensions of the strains tested [5]: inhibited
inhibition of secondary alcohol dehydrogenase activity [10]: strongly inhibited
% Inhibition, Methane-Hydroxylating Activity [6]: 90%
% Inhibition, Propylene-Epoxidizing Activity [6]: 93%
inhibition at 1000 µM [7, 15]: 90%
inhibition at 1000 µM [7, 16]: 90%

c1ccccc1 [benzene]
oxidative conversion rate of cyclic hydrocarbon (cyclohexane to cyclohexanol) [8]: no oxidative conversion was detected

CCC(C)=O [2-butanone]
inhibition of SADH activity by the product [9]: inhibited
product inhibition of 2-butanone production ([5]; 8 μmoles 2-butanone added to viable cell suspensions): no product inhibition

CCC(C)O (stereo not drawn) [2-butanol]
2-Butanol Consumed ([11]; experiment 1, 10 min.): 260 nmol
2-Butanol Consumed ([11]; experiment 2, 20 min.): 530 nmol
NAD Consumed ([11]; experiment 2, 20 min.): 540 nmol
substrate specificity of purified SADH [9]: highest
Km ([9]; read-out: Km values): 250 µM
NAD^+ Reduced [10]: 5.9 µmol
Product formed [10]: 5.7 µmol
oxidation by the purified secondary alcohol dehydrogenase [10]: catalyzed the oxidation

c1ccc(-c2ccccn2)nc1 [α,α -Bipyridyl, α,α-bipyridyl]
inhibition at 1000 µM [1, 12]: 75%
inhibition of the conversion of the n-alkanes to the sec. alcohols [2]: inhibited
inhibition at 1000 µM [3, 13]: 100%
inhibition at 1000 µM [3, 14]: 90%
inhibition at 1000 µM [4, 13]: 100%
inhibition at 1000 µM [4, 14]: 100%
% inhibition of SADH activity [9, 17]: 70%
inhibition of production of 2-butanone from 2-butanol by cell suspensions of the strains tested [5]: inhibited
% Inhibition, Methane-Hydroxylating Activity [6]: 99%
% Inhibition, Propylene-Epoxidizing Activity [6]: 98%
inhibition at 1000 µM [7, 13]: 100%
inhibition at 1000 µM [7, 14]: 100%
